From patent publication US7968103B2, “Compositions comprising fetal hemoglobin and bacterial endotoxin and optionally additional fetal liver components” (priority 2003, dated 2011)

Columns and labels:
[1] = biological target: CD14 on spleen adherent cells of DBA/2 mice (mouse (cells from DBA/2 mice)) (UniProt P10810); assay: cell-based or functional assay
[2] = test system: mouse spleen cells; assay: Cytokine production by mouse spleen cells with LPS and Hb; assay type: cell-based, C57BL/6 mice; conditions: murine spleen cells, LPS 200 ng/ml
Protocol: (§1) Spleen cells were pooled from 3 C57BL/6 donors (8-week male). Cells were incubated in triplicate in 2 ml medium (with 10% fetal calf serum and 200 ng/ml LPS) at a concentration of 1×10^6/ml. Medium contained in addition adult or fetal (sheep) hemoglobin at the various concentrations shown. Supernatants were harvested 24 hrs later to assay in triplicate for TNFα by ELISA. […] Control cultures (no LPS, LPS only, or fetal/adult Hb only) produced levels <50 ng/ml, <70 ng/ml or <50 ng/ml respectively.
as §1, with “assay for IL-6” for “assay”, “triplicate” for “triplicate for TNFα”, “<100” for “<50”, “<120” for “<70”
In this experiment the cloned γ- and β-chain of sheep Hb were assayed as CHO extracts (20 μg/ml) together with LPS (100 ng/ml) to stimulate murine spleen cells in vitro for the production of TNFα (detection at 24 hr by ELISA) […]

[3] = test system: S-form LPS, Re-LPS, Lipid A; assay: LPS/Lipid A-specific adsorption assay; assay type: binding
Protocol: In order to identify the LPS or Lipid A-interacting protein(s) in CLP1b a LPS/Lipid A-specific adsorption assay was developed. In this screening system polyvinylchloride 96-well microtiter plates (Becton Dickinson) were coated for 14 h at 4° C. with S-form LPS from Salmonella enterica sv. Minnesota 188233, Re-LPS from E. coli F515 or a Lipid A preparation derived from the E. coli strain solubilized as triethylamine (TEA) salts in LAL reagent water (BioWhittaker) at concentrations of 5 μg/ml or 2 μg/ml, respectively. As a control a series of wells was similarly treated with LAL reagent water without the addition of LPS or Lipid A. Subsequently, the solutions were decanted and the wells were rinsed four times with Dulbeccos phosphate-buffered saline (D-PBS; Lifetechnologies) without magnesium or calcium salts. […] In addition, the lyophilized samples from the prior CLP1b incubation and the following sequence of washing steps were resuspended in 50 μl SDS-Sample buffer and the compositions of the collected samples from the adsorption assay were analyzed by SDS-PAGE in 15% (w/v) polyacrylamide gels and silver staining according to the method described by Heukeshoven [Heukeshoven, J., 1986].

[4] = test system: LPS aggregates (Re-LPS from E. coli F515, S-form LPS from Salmonella enterica sv. Minnesota 188233); assay: LPS disaggregation, automated native PAGE assay; conditions: LPS 0.275 μg/μl, hemoglobin 0.375 μg/μl, 37° C., 30 min
Text: Concerning the molecular mechanism of the enhancement of LPS bioactivities by adult mammalian hemoglobin (HbA) preparations, a profound dispersion of the physiologically predominating large LPS aggregates (MW≧10^6 Da) by HbA has been described [Roth, R. J., 1994; Kaca, W., 1994; Roth R. J., 1999]. For analysis of potential analogous effects of highly purified fetal ovine hemoglobin (s-HbF) an automated native PAGE assay was established employing the PhastSystem™ apparatus (Amersham Pharmacia Biotech). Briefly, Re-LPS purified from E. coli F515 or S-form LPS from Salmonella enterica sv. Minnesota 188233 at a final concentration of 0.275 μg/μl was incubated in the presence or absence of the analyzed hemoglobin preparations (0.375 μg/μl) at 37° C. for 30 min. […] The denatured samples were finally analyzed by SDS-PAGE in PhastGel™ Homogeneous-20 gels equipped with PhastGel™ SDS buffer strips (Amersham Pharmacia Biotech) according to the standard protocol of the manufacturer and subsequent silver staining. In comparison to ovine HbF preparations of human HbA (SIGMA-Aldrich), adult ovine hemoglobin (s-HbA) and heme-free fetal ovine hemoglobin (s-HbF/hf) were analysed for LPS disaggregation activities in the native Phast™ PAGE assay.

[5] = test system: human PBL; assay: TNFα production by human PBL with LPS and Hb; assay type: cell-based; conditions: LPS 200 ng/ml
Protocol: PBL were obtained by Ficoll-hypaque purification from volunteers. Cells were incubated in triplicate in 2 ml medium (with 10% commercial human AB serum and 200 ng/ml LPS) at a concentration of 1×10^6/ml. Medium contained in addition adult or fetal (sheep) hemoglobin at the various concentrations shown. Supernatants were harvested 24 hrs later to assay in triplicate for TNFα by ELISA. […] Control cultures (no LPS, LPS only, or fetal/adult Hb only) produced levels <50 ng/ml, <100 ng/ml or <65 ng/ml respectively.
PBL were obtained by Ficoll-hypaque purification from volunteers. Cells were incubated in 2 ml medium (with 10% commercial human AB serum). Cells were incubated in the presence/absence of 500 ng/ml adult or fetal sheep hemoglobin α- or γ-chain. Control cells were incubated in the absence of hemoglobin protein (far left of Figure). In addition, each group was further subdivided into triplicates which received no additional materials (open bars), or 200 ng/ml LPS (closed bars). Supernatants were harvested 24 hrs later to assay (in triplicate) for TNFα by ELISA. Data in panels A and B are independent studies using different volunteer donors (mean ±SD). […]

[6] = Bioenhancing effect on LPS (data not shown)
[7] = test system: adherent spleen cells; assay: Co-stimulation of adherent spleen cells (macrophages) with LPS/CLP2p and recombinant cytokines, cytokine ELISA; assay type: cell-based, DBA/2 mice; conditions: 18 h; LPS 1 μg/ml, CLP2p 0.3 μg/ml, rIL-12/rIL-13 0.1 μg/ml, anti-IL-12 10 μg/ml
Protocol: LPS, as well as many defined cytokines, including IL-1, IL-6, IL-10, IL-12, IL-13 and IFNγ, stimulate macrophages to produce other cytokines in vitro and in vivo. […] In addition, cells were treated with CLP2p, or with cytokines, in the presence of monoclonal antibodies to cytokines. Cytokine production was measured by ELISA (all reagents purchased by Pharmingen, San Diego, USA).
IL-12 is a primary physiological stimulus for cytokine production by macrophages during inflammation [Wang, J., 1999], and LPS may mediate its stimulatory effects by inducing IL-12 production. Similarly, IL-13 may be a physiologic counter-regulator of stimulation by IL-12 [Machado, F., 1998]. […] In some cultures a monoclonal antibody to IL-12 was included. (Recombinant cytokines were obtained according to conventional protocols.) Data pooled from 3 such studies are shown in Table 1.

Sequence of UniProt P10810 (P10810 16-336): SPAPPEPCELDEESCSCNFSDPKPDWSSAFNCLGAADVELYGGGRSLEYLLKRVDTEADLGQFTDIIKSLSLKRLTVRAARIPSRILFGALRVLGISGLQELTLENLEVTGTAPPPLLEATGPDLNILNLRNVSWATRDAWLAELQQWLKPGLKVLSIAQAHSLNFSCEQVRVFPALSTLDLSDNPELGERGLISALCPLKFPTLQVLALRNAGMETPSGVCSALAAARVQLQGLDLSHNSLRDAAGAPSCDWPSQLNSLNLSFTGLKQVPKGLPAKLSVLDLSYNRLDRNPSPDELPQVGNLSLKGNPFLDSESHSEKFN

commercial anti-CD14 monoclonal antibody (UCHM-1, Sigma)
Inhibition % of TNF-α production by spleen adherent cells; stimulus CLP2p (0.3 µg/ml), anti-CD14 2.5 µg/ml [1]: 46%
Inhibition % of TNF-α production by spleen adherent cells; stimulus CLP2p (0.3 µg/ml), anti-CD14 10 µg/ml [1]: 80%
Inhibition % of TNF-α production by spleen adherent cells; stimulus LPS (1 µg/ml), anti-CD14 2.5 µg/ml [1]: 58%
Inhibition % of TNF-α production by spleen adherent cells; stimulus LPS (1 µg/ml), anti-CD14 10 µg/ml [1]: 81%

fetal Hb: purified fetal sheep hemoglobin, α and γ chains (α2γ2)
synergy with LPS in the production of TNFα or IL-6 [2]: clear evidence for a synergy
LPS/Lipid A interaction in CLP1b [3]: major LPS/Lipid A-interacting component
LPS disaggregation activity [4]: stronger LPS disaggregation activities
synergy with LPS for the production of TNFα [5]: striking synergy

myoglobin
bioenhancing effect [6]: not observed

rIL-13: recombinant cytokine IL-13 [reference compound]
IL-1 level in culture supernatant [7]: 15 ng/mL
IL-6 level in culture supernatant [7]: 1040 pg/mL
TNFα level in culture supernatant [7]: 40 ng/mL

B1: rIL-12: recombinant cytokine IL-12 (protein, UniProt P29459 23-219; P29460 23-328, looked up)
Interleukin-12 subunit alpha: RNLPVATPDPGMFPCLHHSQNLLRAVSNMLQKARQTLEFYPCTSEEIDHEDITKDKTSTVEACLPLELTKNESCLNSRETSFITNGSCLASRKTSFMMALCLSSIYEDLKMYQVEFKTMNAKLLMDPKRQIFLDQNMLAVIDELMQALNFNSETVPQKSSLEEPDFYKTKIKLCILLHAFRIRAVTIDRVMSYLNAS
Interleukin-12 subunit beta: IWELKKDVYVVELDWYPDAPGEMVVLTCDTPEEDGITWTLDQSSEVLGSGKTLTIQVKEFGDAGQYTCHKGGEVLSHSLLLLHKKEDGIWSTDILKDQKEPKNKTFLRCEAKNYSGRFTCWWLTTISTDLTFSVKSSRGSSDPQGVTCGAATLSAERVRGDNKEYEYSVECQEDSACPAAEESLPIEVMVDAVHKLKYENYTSSFFIRDIIKPDPPKNLQLKPLKNSRQVEVSWEYPDTWSTPHSYFSLTFCVQVQGKSKREKKDRVFTDKTSATVICRKNASISVRAQDRYYSSSWSEWASVPCS
IL-1 level in culture supernatant [7]: 235 ng/mL
IL-6 level in culture supernatant [7]: 359 pg/mL
TNFα level in culture supernatant [7]: 149 ng/mL
